For experiment [1], the target named is T1, Tyrosine-protein phosphatase non-receptor type 2 (Homo sapiens, UniProt P17706).
T1 sequence (P17706 whole entry): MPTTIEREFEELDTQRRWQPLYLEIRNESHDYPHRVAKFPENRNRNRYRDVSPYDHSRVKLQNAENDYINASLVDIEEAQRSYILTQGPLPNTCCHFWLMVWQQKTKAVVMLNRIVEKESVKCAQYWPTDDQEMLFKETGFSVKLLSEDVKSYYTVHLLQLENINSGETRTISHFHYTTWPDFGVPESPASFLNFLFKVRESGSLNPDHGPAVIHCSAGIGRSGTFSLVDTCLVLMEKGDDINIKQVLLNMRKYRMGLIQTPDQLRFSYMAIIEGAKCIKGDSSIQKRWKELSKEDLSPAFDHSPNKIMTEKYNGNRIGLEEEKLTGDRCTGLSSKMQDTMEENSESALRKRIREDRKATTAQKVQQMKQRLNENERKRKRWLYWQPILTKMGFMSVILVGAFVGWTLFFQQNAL
Put plainly: Enzyme Assays. As to the method:
(§1) The in vitro enzyme inhibitory activity was evaluated by using the pNPP assay. Para-nitrophenylphosphate (pNPP) and test compounds were added to assay buffer, and reactions were initiated by the addition of PTP1B or TCPTP (10-100 nM).

In experiment [2] the target is T2, Tyrosine-protein phosphatase non-receptor type 1 (Homo sapiens, UniProt P18031).
T2 sequence (P18031 whole entry): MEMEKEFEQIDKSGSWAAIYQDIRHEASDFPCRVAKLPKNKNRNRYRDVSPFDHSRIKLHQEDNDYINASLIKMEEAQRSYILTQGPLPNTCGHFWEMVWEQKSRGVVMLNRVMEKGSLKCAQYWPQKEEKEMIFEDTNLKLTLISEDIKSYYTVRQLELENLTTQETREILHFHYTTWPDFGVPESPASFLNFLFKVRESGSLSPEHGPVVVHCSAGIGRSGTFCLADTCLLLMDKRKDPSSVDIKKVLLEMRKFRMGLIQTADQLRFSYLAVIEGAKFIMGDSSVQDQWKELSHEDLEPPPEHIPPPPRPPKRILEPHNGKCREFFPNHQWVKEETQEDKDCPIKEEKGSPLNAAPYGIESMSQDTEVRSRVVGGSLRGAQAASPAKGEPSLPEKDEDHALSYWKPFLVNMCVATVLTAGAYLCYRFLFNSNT
Nature of the experiment: Enzyme Assays. As to the method:
as §1

For orientation: IC50 means the concentration that inhibits the measured activity by half. A high value points to a need for much substance. On to `O=C(c1ccccc1)C(Cc1ccc2cc(Br)c(C(F)(F)P(=O)(O)O)cc2c1)(Cc1ccc2cc(Br)c(C(F)(F)P(=O)(O)O)cc2c1)n1nnc2ccccc21`, for which the IC50 amounted to 0.58 µM in experiment [1] and 0.005 µM in experiment [2].
`O=C(c1ccccc1)C(Cc1ccc(Br)c(C(F)(F)P(=O)(O)O)c1)(Cc1ccc2cc(Br)c(C(F)(F)P(=O)(O)O)cc2c1)n1nnc2ccccc21` (stereo not drawn) [({7-[2-(1H-1,2,3-benzotriazol-1-yl)-2-({4-bromo-3-[difluoro(phosphono)methyl]phenyl}methyl)-3-oxo-3-phenylpropyl]-3-bromonaphthalen-2-yl}difluoromethyl)phosphonic acid (10c)] came in with an IC50 in experiment [2] of 0.404 µM.
With `O=C(c1ccccc1)C(Cc1ccc2cc(Br)c(C(F)(F)P(=O)(O)O)cc2c1)(Cc1ccc2cc(Br)c(C(F)(F)P(=O)(O)O)cc2n1)n1nnc2ccccc21` (stereo not drawn) [({7-[2-(1H-1,2,3-benzotriazol-1-yl)-2-({6-bromo-7-[difluoro(phosphono)methyl]quinolin-2-yl}methyl)-3-oxo-3-phenylpropyl]-3-bromonaphthalen-2-yl}difluoromethyl)phosphonic acid (10i)], the IC50 in experiment [1] worked out at 0.09 µM; in experiment [2], 0.003 µM.
As to `N[S+]([O-])C(F)(F)c1cc2nc(CC(Cc3ccc4cc(Br)c(C(F)(F)P(=O)(O)O)cc4c3)(C(=O)c3ccccc3)n3nnc4ccccc43)ccc2cc1Br` (stereo not drawn) [({7-[2-({7-[(aminosulfinyl)difluoromethyl]-6-bromoquinolin-2-yl}methyl)-2-(1H-1,2,3-benzotriazol-1-yl)-3-oxo-3-phenylpropyl]-3-bromonaphthalen-2-yl}difluoromethyl)phosphonic acid (10k)], the IC50 in experiment [1] was 0.185 µM; in experiment [2], 0.006 µM.
Take `N[S+]([O-])C(F)(F)c1cc2nc(CC(Cc3ccc4cc(Br)c(C(F)(F)P(=O)(O)O)cc4n3)(C(=O)c3ccccc3)n3nnc4ccccc43)ccc2cc1Br` (stereo not drawn) [({2-[2-({7-[(aminosulfinyl)difluoromethyl]-6-bromoquinolin-2-yl}methyl)-2-(1H-1,2,3-benzotriazol-1-yl)-3-oxo-3-phenylpropyl]-6-bromoquinolin-7-yl}difluoromethyl)phosphonic acid (10o)]: the IC50 in experiment [1] was determined as 0.082 µM; in experiment [2], 0.004 µM.
In the same order, the values of `N[S+]([O-])C(F)(F)c1cc2cc(CC(Cc3ccc4cc(Br)c(C(F)(F)P(=O)(O)O)cc4c3)(C(=O)c3ccccc3)n3nnc4ccccc43)ccc2cc1Br` (stereo not drawn) [({7-[2-({7-[(aminosulfinyl)difluoromethyl]-6-bromonaphthalen-2-yl}methyl)-2-(1H-1,2,3-benzotriazol-1-yl)-3-oxo-3-phenylpropyl]-3-bromonaphthalen-2-yl}difluoromethyl)phosphonic acid (10j)] are 0.48 µM and 0.004 µM.
In the same order, the values of `O=C(c1ccccc1)C(Cc1ccc2cc(Br)c(C(F)(F)P(=O)(O)O)cc2n1)(Cc1ccc2cc(Br)c(C(F)(F)P(=O)(O)O)cc2n1)n1nnc2ccccc21` [({2-[2-(1H-1,2,3-benzotriazol-1-yl)-2-({6-bromo-7-[difluoro(phosphono)methyl]quinolin-2-yl}methyl)-3-oxo-3-phenylpropyl]-6-bromoquinolin-7-yl}difluoromethyl)phosphonic acid (10n)] are 0.101 µM and 0.005 µM.
Consider `O=C1CC(c2ccc(CC(Cc3ccc4cc(Br)c(C(F)(F)P(=O)(O)O)cc4c3)(C(=O)c3ccccc3)n3nnc4ccccc43)cc2)S(=O)(=O)N1` (stereo not drawn) [({7-[2-(1H-1,2,3-benzotriazol-1-yl)-3-oxo-3-phenyl-2-{[4-(1,1,3-trioxo-1λ⁶,2-thiazolidin-5-yl)phenyl]methyl}propyl]-3-bromonaphthalen-2-yl}difluoromethyl)phosphonic acid (10e)], for which, in experiment [2], the midpoint of inhibition, the IC50, lay at 0.93 µM.
Regarding `O=C(c1ccccc1)C(Cc1ccc(C(F)(F)P(=O)(O)O)cc1)(Cc1ccc2cc(Br)c(C(F)(F)P(=O)(O)O)cc2c1)n1nnc2ccccc21` (stereo not drawn) [({7-[2-(1H-1,2,3-benzotriazol-1-yl)-2-({4-[difluoro(phosphono)methyl]phenyl}methyl)-3-oxo-3-phenylpropyl]-3-bromonaphthalen-2-yl}difluoromethyl)phosphonic acid (10a)], the IC50 in experiment [2] was 0.046 µM.
For `N[S+]([O-])C(F)(F)c1ccc(CC(Cc2ccc3cc(Br)c(C(F)(F)P(=O)(O)O)cc3c2)(C(=O)c2ccccc2)n2nnc3ccccc32)cc1Br` (stereo not drawn) [({7-[2-({4-[(aminosulfinyl)difluoromethyl]-3-bromophenyl}methyl)-2-(1H-1,2,3-benzotriazol-1-yl)-3-oxo-3-phenylpropyl]-3-bromonaphthalen-2-yl}difluoromethyl)phosphonic acid (10d)], the IC50 was found to be 0.192 µM in experiment [1] and 0.019 µM in experiment [2].
Take `O=C1CC(c2ccc(CC(Cc3ccc4cc(Br)c(C(F)(F)P(=O)(O)O)cc4c3)(C(=O)c3ccccc3)n3nnc4ccccc43)cc2F)S(=O)(=O)N1` (stereo not drawn) [({7-[2-(1H-1,2,3-benzotriazol-1-yl)-2-{[3-fluoro-4-(1,1,3-trioxo-1λ⁶,2-thiazolidin-5-yl)phenyl]methyl}-3-oxo-3-phenylpropyl]-3-bromonaphthalen-2-yl}difluoromethyl)phosphonic acid (10g)]: in experiment [2], inhibition was half-maximal at 0.919 µM (IC50).
On the same count and under the same terms, under `N[S+]([O-])C(F)(F)c1ccc(CC(Cc2ccc3cc(Br)c(C(F)(F)P(=O)(O)O)cc3n2)(C(=O)c2ccccc2)n2nnc3ccccc32)cc1Br` (stereo not drawn) [({2-[2-({4-[(aminosulfinyl)difluoromethyl]-3-bromophenyl}methyl)-2-(1H-1,2,3-benzotriazol-1-yl)-3-oxo-3-phenylpropyl]-6-bromoquinolin-7-yl}difluoromethyl)phosphonic acid (10m)] stands 0.022 µM.
Still for that read-out and setting: to `O=C(c1ccccc1)C(Cc1ccc(C(F)(F)P(=O)(O)O)c(Br)c1)(Cc1ccc2cc(Br)c(C(F)(F)P(=O)(O)O)cc2n1)n1nnc2ccccc21` (stereo not drawn) [({2-[2-(1H-1,2,3-benzotriazol-1-yl)-2-({3-bromo-4-[difluoro(phosphono)methyl]phenyl}methyl)-3-oxo-3-phenylpropyl]-6-bromoquinolin-7-yl}difluoromethyl)phosphonic acid (10l)] belongs 0.021 µM; to `Cc1cc(CC(Cc2ccc3cc(Br)c(C(F)(F)P(=O)(O)O)cc3c2)(C(=O)c2ccccc2)n2nnc3ccccc32)ccc1C1CC(=O)NS1(=O)=O` (stereo not drawn) [({7-[2-(1H-1,2,3-benzotriazol-1-yl)-2-{[3-methyl-4-(1,1,3-trioxo-1λ⁶,2-thiazolidin-5-yl)phenyl]methyl}-3-oxo-3-phenylpropyl]-3-bromonaphthalen-2-yl}difluoromethyl)phosphonic acid (10f)], 0.924 µM.
Turning to `O=C(c1ccccc1)C(Cc1ccc(C(F)(F)P(=O)(O)O)c(Br)c1)(Cc1ccc2cc(Br)c(C(F)(F)P(=O)(O)O)cc2c1)n1nnc2ccccc21` (stereo not drawn) [({7-[2-(1H-1,2,3-benzotriazol-1-yl)-2-({3-bromo-4-[difluoro(phosphono)methyl]phenyl}methyl)-3-oxo-3-phenylpropyl]-3-bromonaphthalen-2-yl}difluoromethyl)phosphonic acid (10b)], the values for the IC50 in experiment [1] and in experiment [2] were 0.201 µM and 0.02 µM, respectively.

(Values after BindingDB's records for doi:10.1002/cmdc.201100077 (Zydus Research Centre, 2011).)
